# From ChEMBL document CHEMBL3638847, “Substituted piperidine compounds and their use as orexin receptor modulators” (2015)
# pKi: −log10 of the molar value.
# Columns and labels:
# Orexin receptor type 2 = biological target: T1, Orexin receptor type 2 (Homo sapiens, UniProt O43614); experiment: Radioligand Binding Assay: HEK293 stably expressing human orexin 2 receptor (Genebank accession numberNM_001526) were grown to confluency in DMEM (Hyclone, cat # SH30022) , 10%FBS, IX Pen/Strep, IX NaPyruvate, 10 mM HEPES, 600 ug/ml G418 media on 150 cm2 tissue culture plates, washed with 5 mM EDTA in PBS (HyClone Dulbecco's Phoshpate Buffered Saline IX with Calcium and Magnesium, Cat # SH30264.01, hereafter referred to simply as PBS) and scraped into 50 ml tubes. After centrifugation (2K xG, 5 min at 4°C), the supernatant was aspirated and the pellets frozen and stored at -80°C. Cells were resuspended in PBS in the presence of 1 tablet of protease inhibitor cocktail (Roche, Cat. #11836145001) per 50 mL. Each cell pellet from a 15 cm plate was resuspended in 10 mL, stored on ice, and homogenized for 45 sec just prior to addition to the reactions. Competition binding experiments in 96 well polypropylene plates were performed using [3H]-EMPA (Moraveck Corporation, specific activity = 29.6 Ci/mmol).
# T1 sequence (O43614 whole entry): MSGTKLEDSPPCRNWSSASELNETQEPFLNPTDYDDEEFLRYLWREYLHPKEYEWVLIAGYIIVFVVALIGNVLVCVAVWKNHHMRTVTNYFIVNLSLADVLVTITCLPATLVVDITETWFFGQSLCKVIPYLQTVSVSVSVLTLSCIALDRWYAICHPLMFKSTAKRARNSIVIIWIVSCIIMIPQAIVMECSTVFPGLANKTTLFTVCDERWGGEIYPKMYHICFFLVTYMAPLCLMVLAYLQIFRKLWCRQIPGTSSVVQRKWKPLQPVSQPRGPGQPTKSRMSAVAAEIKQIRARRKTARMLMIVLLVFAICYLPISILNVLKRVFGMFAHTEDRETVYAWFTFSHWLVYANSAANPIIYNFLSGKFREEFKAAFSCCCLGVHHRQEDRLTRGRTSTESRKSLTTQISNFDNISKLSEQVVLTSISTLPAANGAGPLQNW
# [1] = biological target: T2, Orexin/Hypocretin receptor type 1 (Homo sapiens, UniProt O43613); experiment: (§1) Radioligand Binding Assay: Human Embryonic Kidney 293 cells (HEK293) stably expressing rat orexin 1 receptor(Genebank accession number NM_001525) or […] (CHO) stably expressing human orexin 1 receptor (Genebank accession number […]) were grown to confluency in DMEM (Hyclone, cat # SH30022), 10% FBS, IX Pen/Strep, IX sodium pyruvate, 10 mM HEPES, 600 ug/mL G418 and DMEM/F12 (Gibco, Cat #1 1039), 10%FBS, IX Pen/Strep, 600 ug/mL G418 media, respectively on 150 cm2 tissue culture plates, washed with 5 mM EDTA in PBS (HyClone Dulbecco's Phoshpate Buffered Saline IX with Calcium and Magnesium, Cat # SH30264.01, hereafter referred to simply as PBS) and scraped into 50 ml tubes. After centrifugation (2K xG, 5 min at 4 C), the supernatant was aspirated and the pellets frozen and stored at -80C. Cells were resuspended in PBS in the presence of 1 tablet of protease inhibitor cocktail (Roche, Cat. #1 1836145001) per 50 mL. Each cell pellet from a 15 cm plate was resuspended in 10 mL.; type: cell-based
# T2 sequence (O43613 whole entry): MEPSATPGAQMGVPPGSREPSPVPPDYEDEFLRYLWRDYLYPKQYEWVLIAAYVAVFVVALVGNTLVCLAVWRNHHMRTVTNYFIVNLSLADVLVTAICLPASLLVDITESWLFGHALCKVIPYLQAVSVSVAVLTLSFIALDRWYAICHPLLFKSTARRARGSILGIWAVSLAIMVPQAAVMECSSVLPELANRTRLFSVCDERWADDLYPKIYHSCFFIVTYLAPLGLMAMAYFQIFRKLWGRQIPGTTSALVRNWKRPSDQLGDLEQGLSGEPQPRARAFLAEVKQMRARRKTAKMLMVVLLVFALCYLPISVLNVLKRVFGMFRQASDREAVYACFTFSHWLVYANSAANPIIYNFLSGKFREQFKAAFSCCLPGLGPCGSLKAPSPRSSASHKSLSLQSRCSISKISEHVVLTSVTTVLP
# [2] = biological target: T3, Orexin/Hypocretin receptor type 1 (Rattus norvegicus, UniProt P56718); experiment: as §1; type: cell-based
# T3 sequence (P56718 whole entry): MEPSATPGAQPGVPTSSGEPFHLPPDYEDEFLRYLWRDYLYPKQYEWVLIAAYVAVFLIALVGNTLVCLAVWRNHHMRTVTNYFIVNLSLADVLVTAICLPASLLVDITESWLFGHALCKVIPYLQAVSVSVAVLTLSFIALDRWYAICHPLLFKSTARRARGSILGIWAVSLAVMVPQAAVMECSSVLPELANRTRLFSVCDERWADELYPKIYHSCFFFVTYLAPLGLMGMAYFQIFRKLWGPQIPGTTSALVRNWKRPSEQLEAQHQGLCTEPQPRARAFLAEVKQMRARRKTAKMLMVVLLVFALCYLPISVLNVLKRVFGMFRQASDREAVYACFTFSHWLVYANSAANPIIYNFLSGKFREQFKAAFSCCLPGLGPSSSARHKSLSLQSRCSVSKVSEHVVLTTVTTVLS
smiles,measurement,setting,value
Cc1cnc(C(=O)N2CCC[C@@H](Nc3ccc(C(F)(F)F)cn3)[C@@H]2C)c(-c2ncccn2)c1,pKi,Orexin receptor type 2,7.04
same,pKi,[1],7.59
same,pKi,[2],7.72
